# Test results from patent US8740843B2, “Coated balloon catheter” (Cook Medical Technologies LLC, priority 2009, dated 2014).
# Experiment: Elution of paclitaxel from coated balloon catheter assemblies in porcine serum elution medium (HPLC)
# Type: physicochemical
# Conditions: contrast media vs saline
# Description: The rate of paclitaxel elution in each of the paclitaxel-coated balloon catheter assemblies described in Example 1 is analyzed in a porcine serum at 37° C. The coated balloon catheter assemblies are then divided into two groups, A and B. The coated balloon catheter assembly in Group A is designated to deliver a saline solution through the apertures of the outer balloon, while the coated balloon catheter assembly in Group B is designated to deliver a contrast media through the apertures of the outer balloon. The contrast media used is ISOVUE®-370 of Bracco Diagnostics (Princeton, N.J.), which included 370 mgl/mL of Iopamidol.
# The coated balloon catheter assemblies, expanded to 4 ATM, is contacted with the porcine serum elution medium and continuously stirred for a desired period of time (e.g., at least one hour) selected to gradually dissolve the paclitaxel at a rate similar to dissolution in blood. […] The amount of the paclitaxel dissolved is measured as a function of time by monitoring with High Performance Liquid Chromatography (HPLC) the porcine serum elution medium after contact with the coated balloon catheter assembly. […] The outer balloon of each of the coated balloon catheter assemblies is then detached from the assembly and analyzed using HPCL to measure the amount of paclitaxel left on the coated outer balloon after being in contact with the elution medium for 60 minutes.
smiles,measurement,setting,value
CC(=O)O[C@H]1C(=O)[C@@]2(C)[C@H]([C@H](OC(=O)c3ccccc3)[C@]3(O)C[C@H](OC(=O)[C@H](O)[C@@H](NC(=O)c4ccccc4)c4ccccc4)C(C)=C1C3(C)C)[C@]1(OC(C)=O)CO[C@@H]1C[C@@H]2O [paclitaxel],lower amount of PTX on the outer balloon than Group A balloon catheters,after 60 minutes,≤ 15%
same,PTX elutes faster than Group A balloon catheters,time period of 2 to 10 minutes,2-3 times
